Measurements as given in patent US7563886B2, “Nucleoside releasing functional unit through oxidation and process for producing oligonucleotide containing thereof” (Japan Science and Technology Agency, priority 2003, dated 2009).

Tests used:
[1] = Oxidation with sodium hexachloroiridate(IV); settings: in 15 minutes
[2] = Photooxidation of single-stranded oligonucleotide, irradiation at 366 nm in the presence of riboflavin; assay type: physicochemical; settings: single-stranded ODN, irradiated at 366 nm in the presence of riboflavin
Source text: The inventors conducted photooxidization of the oligonucleotide (7) containing benzoyl-^edaG (^Bz-edaG), for example, 5′-d(TATAAT^Bz-edaGTAATAT)-3′.
The single-stranded oligonucleotide (ODN) 5′-d(TATAAT^edaGTAATAT)-3′ was irradiated at 366 nm in the presence of riboflavin.

[3] = Measurement of oxidation potential (E1/2); assay type: physicochemical; settings: vs. NHE; 100 mM LiClO4 solution, room temperature
Procedure: The oxidation potential (E1/2) of benzoyl-^edaG was measured in 100 mM LiClO4 solution at room temperature by ALS electrochemical analyzer model 660-A. The scanning speed was 100 mV/sec. A glass carbon electrode was used as a sample electrode; a platinum wire as a counter electrode; and SCE as a reference electrode.

Row | decomposed at the site of the modified edaG [1] [%] | t1/2 of decomposition [2] [min] | oxidation potential (E1/2) [3] [V] | Substance
1 | 57 | 6.2 | – | 5′-d(TATAAT^Bz-edaGTAATAT)-3′
2 | – | 6.2 | – | 5′-d(TATAAT^edaGTAATAT)-3′
3 | – | – | 0.59 | benzoyl-^edaG [^Bz-edaG]
